Each structure is given as a SMILES string. Where a SMILES comes first, the peptide text is derived from it. [ ]: non-standard residue; d: D form. The star is where a group is joined. ξ: configuration not given here. Pro(trans-4-F) = O=C(O)[C@@H]1C[C@@H](F)CN1; NMeW = CN[C@@H](Cc1c[nH]c2ccccc12)C(=O)O; Benzoyl(3,5-F2) = O=C(c1cc(F)cc(F)c1)*; NMeIle(3ξ) = CCC(C)[C@H](NC)C(=O)O; NMeF = CN[C@@H](Cc1ccccc1)C(=O)O; NMeQ = CN[C@@H](CCC(N)=O)C(=O)O; NMeL = CN[C@@H](CC(C)C)C(=O)O; NMeA = CN[C@@H](C)C(=O)O; Dab = NCC[C@H](N)C(=O)O; Hexanoyl = CCCCCC(=O)*; Butyryl = CCCC(=O)*; Bz = O=C(c1ccccc1)*; NHOH = ON*

MMP-9 (Homo sapiens, UniProt P14780), sequence (P14780 107-707 limits assumed): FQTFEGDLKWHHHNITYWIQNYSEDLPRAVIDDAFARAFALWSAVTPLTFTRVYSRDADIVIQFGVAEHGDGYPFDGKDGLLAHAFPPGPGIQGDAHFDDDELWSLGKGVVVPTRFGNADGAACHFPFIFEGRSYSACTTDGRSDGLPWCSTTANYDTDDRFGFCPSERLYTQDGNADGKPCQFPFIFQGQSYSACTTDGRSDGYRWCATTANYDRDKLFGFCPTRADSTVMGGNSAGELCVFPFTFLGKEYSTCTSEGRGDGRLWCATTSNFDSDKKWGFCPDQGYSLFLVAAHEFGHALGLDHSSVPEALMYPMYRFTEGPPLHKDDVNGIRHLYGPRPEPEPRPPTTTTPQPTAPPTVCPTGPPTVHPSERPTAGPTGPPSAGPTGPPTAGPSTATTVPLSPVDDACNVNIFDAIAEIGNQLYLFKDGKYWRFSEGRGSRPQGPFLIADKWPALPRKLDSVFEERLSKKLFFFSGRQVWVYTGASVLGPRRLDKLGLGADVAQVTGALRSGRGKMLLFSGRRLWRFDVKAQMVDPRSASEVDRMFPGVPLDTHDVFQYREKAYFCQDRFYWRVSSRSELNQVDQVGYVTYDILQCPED

In one experiment the target is MMP-9. The experiment in a line: MMP-9 inhibition assay (fluorimetric, DQ gelatin substrate). The class given is biochemical. Conditions: recombinant MMP-9 (Merck-Millipore for examples 1 to 9 and comparative examples; Enzo for examples 10 to 16), DQ gelatin 50 μg/mL, 4 hours at room temperature, pH 7.6. On the procedure: (§1) All the experiments were done in 1× reaction buffer, which was obtained from a 10× reaction buffer solution. The content of the 10× reaction buffer was: 50 mL of 0.5 M Tris-HCl, 1.5 M NaCl, 50 mM CaCl2 and 2 mM sodium azide at pH 7.6. To obtain the 1× reaction buffer 4 mL of the 10× reaction buffer were diluted in 36 mL of H2O.
MMP-9, sequence (P14780 107-707 limits assumed): as above
(§2) Recombinant MMP-9 expressed was obtained from Merck-Millipore (catalog number PF140-5UG, used in examples 1 to 9 and comparative examples) and Enzo (catalog number-SE360-0010, used in examples 10 to 16). DQ gelatin from pig skin fluorescein conjugated (MMP-9 substrate) was obtained from Life Technologies (catalog number E12055).
(§3) Preparation of the MMP-9 for the activity assay: MMP-9 was provided as a stock solution (0.1 mg/mL). The enzyme was diluted in 1× reaction buffer to a final concentration of 5 μg/mL.
(§4) Preparation of the DQ gelatin (substrate) solution for the activity assay: the solid form of the substrate was dissolved in water in order to obtain a stock solution of 1 mg/mL.
(§5) Procedure: The enzymatic assays were performed in 96-well microtiter plate, which allowed simultaneous monitoring of multiple reactions. For each reaction, 84.6 μL of 1× reaction buffer (pH 7.6), […] of MMP-9 (final concentration 85 ng/mL) and 2 μL of the corresponding new compound were added to each well. A stock solution of new compound was prepared in DMSO (100 mM), and dilutions were prepared from this stock solution with DMSO. Finally, to the mixture contained in each well 10 μL of the substrate were added (final concentration 50 μg/mL). The reaction was incubated for 4 hours at room temperature in an orbital shaker (100 rpm).
(§6) The inhibitory activity of the new compound was measured fluorimetrically. The excitation and emission wavelengths were 483 and 525 nm, respectively.
(§7) Inhibitory activity at several concentration points (ranging from 100 pM to 200 μM MMP) were measured for each compound. The inhibitory activity on MMP-2 and MMP-9 was calculated according to eq 1. For each new compound, the fluorescence in the presence (a) and in the absence (b) of the corresponding MMP was measured. The maximum fluorescence (0% inhibitory activity) was obtained from a sample of the corresponding MMP in the absence of inhibitory compounds. To estimate the inhibitory potency of the novel compounds, activities were plotted against the log concentration of the compound, adjusting to a sigmoid curve using GraphPad Prism software, and the IC50 value, defined as the concentration of compound required to inhibit 50% of the corresponding MMP activity, was determined from resulting curve.
(§8) a corresponds to fluorescence intensity in the presence of substrate+test compound+MMP
(§9) b corresponds to the fluorescence intensity in the presence of substrate+tested compound
(§10) c corresponds to the fluorescence intensity in the presence of substrate+MMP
(§11) d corresponds to the fluorescence intensity of the presence of substrate
Turning to `CCC(C)[C@@H](C(=O)N[C@@H](CCNC(=O)c1cc(F)cc(F)c1)C(=O)NO)N(C)C(=O)[C@@H]1CCCN1C(=O)CC(C)C` (stereo partly drawn) [Example 5, (2S)—N-[(1S)-1-[[(1S)-3-[(3,5-difluorobenzoyl)amino]-1-(hydroxycarbamoyl)propyl]carbamoyl]-2-methyl-butyl]-N-methyl-1-(3-methylbutanoyl)pyrrolidine-2-carboxamide], the IC50 (usually the midpoint of a concentration-inhibition curve) stood at 0.601 µM.

In the case of `CCC(C)[C@@H](C(=O)N[C@@H](CCNC(=O)c1cc(F)cc(F)c1)C(=O)NO)N(C)C(=O)[C@@H]1CC(F)(F)CN1C(=O)CCCOc1ccccc1` (stereo partly drawn) [Example 10, (2S)—N-[(1S)-1-[[(1S)-3-[(3,5-difluorobenzoyl)amino]-1-(hydroxycarbamoyl)propyl]carbamoyl]-2-methyl-butyl]-4,4-difluoro-N-methyl-1-(4-phenoxybutanoyl)pyrrolidine-2-carboxamide], the IC50 was found to be 0.223 µM.

With `CCC(C)[C@@H](C(=O)N[C@@H](CCNC(=O)c1ccc(F)cc1)C(=O)NO)N(C)C(=O)[C@@H]1CCCN1C(C)=O` (stereo partly drawn) [Example 1, (2S)-1-acetyl-N-[(1S)-1-[[(1S)-3-[(4-fluorobenzoyl)amino]-1-(hydroxycarbamoyl)propyl]carbamoyl]-2-methyl-butyl]-N-methyl-pyrrolidine-2-carboxamide], the IC50 was 1.26 µM.

`CCCC(=O)N(C)[C@@H](Cc1c[nH]c2ccccc12)C(=O)N(C)[C@@H](CC(C)C)C(=O)N1CCC[C@H]1C(=O)N(C)[C@H](C(=O)N[C@@H](CCNC(=O)c1cc(F)cc(F)c1)C(=O)NO)C(C)CC` (stereo partly drawn) [Example 14, (2S)-1-[(2S)-2-[[(2S)-2-[butanoyl(methyl)amino]-3-(1H-indol-3-yl)propanoyl]-methyl-amino]-4-methyl-pentanoyl]-N-[(1S)-1-[[(1S)-3-[(3,5-difluorobenzoyl)amino]-1-(hydroxycarbamoyl)propyl]carbamoyl]-2-methyl-butyl]-N-methyl-pyrrolidine-2-carboxamide] (Butyryl-[NMeW][NMeL]P[NMeIle(3ξ)][Dab](Benzoyl(3,5-F2))-{NHOH}): the IC50 was 0.046 µM.

For `CCC(C)[C@@H](C(=O)N[C@@H](CCNC(=O)c1cc(F)cc(F)c1)C(=O)NO)N(C)C(=O)[C@@H]1CCCN1C(=O)CCN(C)C(C)=O` (stereo partly drawn) [Example 13, (2S)-1-[3-[acetyl(methyl)amino]propanoyl]-N-[(1S)-1-[[(1S)-3-[(3,5-difluorobenzoyl)amino]-1-(hydroxycarbamoyl)propyl]carbamoyl]-2-methyl-butyl]-N-methyl-pyrrolidine-2-carboxamide], the IC50 stood at 0.339 µM.

As for `CC(=O)N1CCC[C@H]1C(=O)N[C@@H](CCC(N)=O)C(=O)N[C@@H](Cc1c[nH]c2ccccc12)C(=O)NO` [Example C17, (2S)-2-[[(2S)-1-acetylpyrrolidine-2-carbonyl)amino]-N-[(1S)-2-(hydroxyamino)-1-(1H-indol-3-ylmethyl)-2-oxo-ethyl]pentanediamide, reference compound] (Ac-Pro-Gln-Trp-{NHOH}), the half-inhibitory concentration (IC50) turned out to be 3500 µM.

For the compound `CCC(C)[C@@H](C(=O)N[C@@H](CCNC(=O)c1cc(F)cc(F)c1)C(=O)NO)N(C)C(=O)[C@@H]1CCCN1C(=O)CCCOc1ccccc1` (stereo partly drawn) [Example 9, (2S)—N-[(1S)-1-[[(1S)-3-[(3,5-difluorobenzoyl)amino]-1-(hydroxycarbamoyl)propyl]carbamoyl]-2-methyl-butyl]-N-methyl-1-(4-phenoxybutanoyl)pyrrolidine-2-carboxamide], the IC50 was determined as 0.506 µM.

In the case of `CCC(C)[C@@H](C(=O)N[C@@H](CCNC(=O)c1cc(F)cc(F)c1)C(=O)NO)N(C)C(=O)[C@@H]1CCCN1C(C)=O` (stereo partly drawn) [Example 2, (2S)-1-acetyl-N-[(1S)-1-[[(1S)-3-[(3,5-difluorobenzoyl)amino]-1-(hydroxycarbamoyl)propyl]carbamoyl]-2-methyl-butyl]-N-methyl-pyrrolidine-2-carboxamide], the IC50 is 0.301 µM.

For `CC(=O)N1CCC[C@H]1C(=O)N(C)[C@@H](CCC(N)=O)C(=O)N[C@@H](Cc1c[nH]c2ccccc12)C(=O)NO` [Example C20, (2S)-2-[[(2S)-1-acetylpyrrolidine-2-carbonyl]-methyl-amino]-N-[(1S)-2-(hydroxyamino)-1-(1H-indol-3-ylmethyl)-2-oxo-ethyl]pentanediamide, reference compound] (Ac-Pro-[NMeQ]-Trp-{NHOH}), the IC50 is 22 µM.

For another experiment, the target named is MMP-9 (Homo sapiens, UniProt P14780). The description is as above. The class given is biochemical. The settings on record: recombinant MMP-9 (Merck-Millipore for examples 1 to 9 and comparative examples; Enzo for examples 10 to 16), DQ gelatin 50 μg/mL, 4 hours at room temperature, pH 7.6. On the procedure:
as §1, §2, §3, §4, §5, §6, §7, §8, §9, §10, §11
In the case of `CCCCCC(=O)N1CCC[C@H]1C(=O)N(C)[C@H](C(=O)N[C@@H](CCNC(=O)c1cc(F)cc(F)c1)C(=O)NO)C(C)CC` (stereo partly drawn) [Example 3, (2S)—N-[(1S)-1-[[(1S)-3-[(3,5-difluorobenzoyl)amino]-1-(hydroxycarbamoyl)propyl]carbamoyl]-2-methyl-butyl]-1-hexanoyl-N-methyl-pyrrolidine-2-carboxamide], the IC50 stood at 0.395 µM.

For the compound `CCCC(=O)N1CCC[C@H]1C(=O)N(C)[C@H](C(=O)N[C@@H](CCNC(=O)c1cc(F)cc(F)c1)C(=O)NO)C(C)CC` (stereo partly drawn) [Example 4, (2S)-1-butanoyl-N-[(1S)-1-[[(1S)-3-[(3,5-difluorobenzoyl)amino]-1-(hydroxycarbamoyl)propyl]carbamoyl]-2-methyl-butyl]-N-methyl-pyrrolidine-2-carboxamide], the IC50 was determined as 0.235 µM.

For the compound `CCC(C)[C@@H](C(=O)N[C@@H](CCNC(=O)c1cc(F)cc(F)c1)C(=O)NO)N(C)C(=O)[C@@H]1CCCN1C(=O)[C@H](C)N(C)C(C)=O` (stereo partly drawn) [Example 12, (2 S)-1-[(2S)-2-[acetyl(methyl)amino]propanoyl]-N-[(1S)-1-[[(1S)-3-[(3,5-difluorobenzoyl)amino]-1-(hydroxycarbamoyl)propyl]carbamoyl]-2-methyl-butyl]-N-methyl-pyrrolidine-2-carboxamide] (Ac-[NMeA]P[NMeIle(3ξ)][Dab](Benzoyl(3,5-F2))-{NHOH}), the IC50 is 0.136 µM.

For the compound `CCCCCCCC(=O)N1CCC[C@H]1C(=O)N(C)[C@H](C(=O)N[C@@H](CCNC(=O)c1cc(F)cc(F)c1)C(=O)NO)C(C)CC` (stereo partly drawn) [Example 6, (2S)—N-[(1S)-1-[[(1S)-3-[(3,5-difluorobenzoyl)amino]-1-(hydroxycarbamoyl)propyl]carbamoyl]-2-methyl-butyl]-N-methyl-1-octanoyl-pyrrolidine-2-carboxamide], the IC50 came to 0.733 µM.

`CCCCCC(=O)N1CC(F)(F)C[C@H]1C(=O)N(C)[C@H](C(=O)N[C@@H](CCNC(=O)c1cc(F)cc(F)c1)C(=O)NO)C(C)CC` (stereo partly drawn) [Example 7, (2S)—N-[(1S)-1-[[(1S)-3-[(3,5-difluorobenzoyl)amino]-1-(hydroxycarbamoyl)propyl]carbamoyl]-2-methyl-butyl]-4,4-difluoro-1-hexanoyl-N-methyl-pyrrolidine-2-carboxamide]: the IC50 was determined as 0.713 µM.

As for `CCCCCC(=O)N1CCC[C@H]1C(=O)N(C)[C@H](C(=O)N[C@@H](CCNC(=O)c1ccccc1)C(=O)NO)C(C)CC` (stereo partly drawn) [Example 15, (2S)—N-[(1S)-1-[[(1S)-3-benzamido-1-(hydroxycarbamoyl)propyl]carbamoyl]-2-methyl-butyl]-N-methyl-1-hexanoyl-pyrrolidine-2-carboxamide] (Hexanoyl-Pro-[NMeIle(3ξ)]-[Dab](Bz)-{NHOH}), the IC50 worked out at 0.702 µM.

In the case of `CCCCCC(=O)N1C[C@H](F)C[C@H]1C(=O)N(C)[C@H](C(=O)N[C@@H](CCNC(=O)c1ccccc1)C(=O)NO)C(C)CC` (stereo partly drawn) [Example 16, (2S,4R)—N-[(1S)-1-[[(1S)-3-benzamido-1-(hydroxycarbamoyl)propyl]carbamoyl]-2-methyl-butyl]-4-fluoro-N-methyl-1-hexanoyl-pyrrolidine-2-carboxamide] (Hexanoyl-[Pro(trans-4-F)]-[NMeIle(3ξ)]-[Dab](Bz)-{NHOH}), the IC50 is 0.01 µM.

In the case of `CCC(C)[C@@H](C(=O)N[C@@H](CCNC(=O)c1cc(F)cc(F)c1)C(=O)NO)N(C)C(=O)[C@@H]1CCCN1C(=O)[C@H](Cc1ccccc1)N(C)C(C)=O` (stereo partly drawn) [Example 11, (2 S)-1-[(2S)-2-[acetyl(methyl)amino]-3-phenyl-propanoyl]-N-[(1S)-1-[[(1S)-3-[(3,5-difluorobenzoyl)amino]-1-(hydroxycarbamoyl)propyl]carbamoyl]-2-methyl-butyl]-N-methyl-pyrrolidine-2-carboxamide] (Ac-[NMeF]P[NMeIle(3ξ)][Dab](Benzoyl(3,5-F2))-{NHOH}), the IC50 is 0.071 µM.

The values are drawn from patent US10414797B2, “Gelatinase inhibitors and use thereof” (Iproteos S.L, priority 2015, dated 2019).
